According to US12168671B2, “Phosphohistidine mimetics and antibodies to same” (The Trustees of Princeton University, priority 2013, dated 2024):

Test: second pKa from 31P shift
Format: physicochemical
Description: This means that both the pPye and pHis have the same charge state at physiological pH. Since the pKa2 of pHis is […], both of the phosphate group oxygen atoms in pHis will be depronated. For pPye, the doubly deprotonated state will be favored at physiological pH (pH 7.4), well mimicking pHis.

SMILES: NCCn1cc(P(=O)(O)O)cn1 [pPye]
- pKa: ~6.7
